Experimental data published in patent publication US8147838B2, “Peptide” (priority 2005, dated 2012).

test system: PBMCs recovered from TroVax treated patients; format: cell-based, human; settings: from HLA-type frequency among responding patients

| Substance | most likely HLA restriction |
| --- | --- |
| 43.2: class II 5T4 20 mer peptide (details in Table 12) (LNSADLDCDPILPPSLQTSY) [Peptide 43.2] | DQ6, DR15, or DR51 |
| 44.2: class II 5T4 20 mer peptide (details in Table 12) (DPILPPSLQTSYVFLGIVLA) [Peptide 44.2] | DQ6, DR15, DR51, or DR52 |
| 45.2: class II 5T4 20 mer peptide (details in Table 12) (MRNRVLLELNSADLDCDPIL) [Peptide 45.2] | DQ6, DR53, DR15, or DR51 |

same assay, conditions: positive proliferative responses

| Substance | responders with HLA type DQ6 out of all responders | responders with HLA type DR15 out of all responders | responders with HLA type DR51 out of all responders | responders with HLA type DR52 out of all responders | responders with HLA type DR53 out of all responders |
| --- | --- | --- | --- | --- | --- |
| 43.2: class II 5T4 20 mer peptide (details in Table 12) (LNSADLDCDPILPPSLQTSY) [Peptide 43.2] | 7 out of 11 | 6 out of 11 | 6 out of 11 |  |  |
| 44.2: class II 5T4 20 mer peptide (details in Table 12) (DPILPPSLQTSYVFLGIVLA) [Peptide 44.2] | 5 out of 9 | 5 out of 9 | 5 out of 9 | 5 out of 9 |  |
| 45.2: class II 5T4 20 mer peptide (details in Table 12) (MRNRVLLELNSADLDCDPIL) [Peptide 45.2] | 5 out of 8 | 4 out of 8 | 4 out of 8 |  | 5 out of 8 |

same assay, conditions: responding patients with HLA type DQ2 / all responding patients; PBMCs from TroVax treated patients

| Substance | HLA-type distribution among positive proliferative responses: DQ2 |
| --- | --- |
| 43.2: class II 5T4 20 mer peptide (details in Table 12) (LNSADLDCDPILPPSLQTSY) [Peptide 43.2] | 5/11 |
| 44.2: class II 5T4 20 mer peptide (details in Table 12) (DPILPPSLQTSYVFLGIVLA) [Peptide 44.2] | 3/9 |
| 45.2: class II 5T4 20 mer peptide (details in Table 12) (MRNRVLLELNSADLDCDPIL) [Peptide 45.2] | 3/8 |

same assay, conditions: responding patients with HLA type DQ4 / all responding patients; PBMCs from TroVax treated patients

| Substance | HLA-type distribution among positive proliferative responses: DQ4 |
| --- | --- |
| 43.2: class II 5T4 20 mer peptide (details in Table 12) (LNSADLDCDPILPPSLQTSY) [Peptide 43.2] | 1/11 |
| 44.2: class II 5T4 20 mer peptide (details in Table 12) (DPILPPSLQTSYVFLGIVLA) [Peptide 44.2] | 0/9 |
| 45.2: class II 5T4 20 mer peptide (details in Table 12) (MRNRVLLELNSADLDCDPIL) [Peptide 45.2] | 0/8 |

same assay, conditions: responding patients with HLA type DQ5 / all responding patients; PBMCs from TroVax treated patients

| Substance | HLA-type distribution among positive proliferative responses: DQ5 |
| --- | --- |
| 43.2: class II 5T4 20 mer peptide (details in Table 12) (LNSADLDCDPILPPSLQTSY) [Peptide 43.2] | 3/11 |
| 44.2: class II 5T4 20 mer peptide (details in Table 12) (DPILPPSLQTSYVFLGIVLA) [Peptide 44.2] | 3/9 |
| 45.2: class II 5T4 20 mer peptide (details in Table 12) (MRNRVLLELNSADLDCDPIL) [Peptide 45.2] | 2/8 |

same assay, conditions: responding patients with HLA type DQ6 / all responding patients; PBMCs from TroVax treated patients

| Substance | HLA-type distribution among positive proliferative responses: DQ6 |
| --- | --- |
| 43.2: class II 5T4 20 mer peptide (details in Table 12) (LNSADLDCDPILPPSLQTSY) [Peptide 43.2] | 7/11 |
| 44.2: class II 5T4 20 mer peptide (details in Table 12) (DPILPPSLQTSYVFLGIVLA) [Peptide 44.2] | 5/9 |
| 45.2: class II 5T4 20 mer peptide (details in Table 12) (MRNRVLLELNSADLDCDPIL) [Peptide 45.2] | 5/8 |

same assay, conditions: responding patients with HLA type DQ7 / all responding patients; PBMCs from TroVax treated patients

| Substance | HLA-type distribution among positive proliferative responses: DQ7 |
| --- | --- |
| 43.2: class II 5T4 20 mer peptide (details in Table 12) (LNSADLDCDPILPPSLQTSY) [Peptide 43.2] | 1/11 |
| 44.2: class II 5T4 20 mer peptide (details in Table 12) (DPILPPSLQTSYVFLGIVLA) [Peptide 44.2] | 3/9 |
| 45.2: class II 5T4 20 mer peptide (details in Table 12) (MRNRVLLELNSADLDCDPIL) [Peptide 45.2] | 3/8 |

same assay, conditions: responding patients with HLA type DQ8 / all responding patients; PBMCs from TroVax treated patients

| Substance | HLA-type distribution among positive proliferative responses: DQ8 |
| --- | --- |
| 43.2: class II 5T4 20 mer peptide (details in Table 12) (LNSADLDCDPILPPSLQTSY) [Peptide 43.2] | 0/11 |
| 44.2: class II 5T4 20 mer peptide (details in Table 12) (DPILPPSLQTSYVFLGIVLA) [Peptide 44.2] | 0/9 |
| 45.2: class II 5T4 20 mer peptide (details in Table 12) (MRNRVLLELNSADLDCDPIL) [Peptide 45.2] | 0/8 |

same assay, conditions: responding patients with HLA type DQ9 / all responding patients; PBMCs from TroVax treated patients

| Substance | HLA-type distribution among positive proliferative responses: DQ9 |
| --- | --- |
| 43.2: class II 5T4 20 mer peptide (details in Table 12) (LNSADLDCDPILPPSLQTSY) [Peptide 43.2] | 1/11 |
| 44.2: class II 5T4 20 mer peptide (details in Table 12) (DPILPPSLQTSYVFLGIVLA) [Peptide 44.2] | 1/9 |
| 45.2: class II 5T4 20 mer peptide (details in Table 12) (MRNRVLLELNSADLDCDPIL) [Peptide 45.2] | 0/8 |

same assay, conditions: responding patients with HLA type DR1 / all responding patients; PBMCs from TroVax treated patients

| Substance | HLA-type distribution among positive proliferative responses: DR1 |
| --- | --- |
| 43.2: class II 5T4 20 mer peptide (details in Table 12) (LNSADLDCDPILPPSLQTSY) [Peptide 43.2] | 2/11 |
| 44.2: class II 5T4 20 mer peptide (details in Table 12) (DPILPPSLQTSYVFLGIVLA) [Peptide 44.2] | 2/9 |
| 45.2: class II 5T4 20 mer peptide (details in Table 12) (MRNRVLLELNSADLDCDPIL) [Peptide 45.2] | 2/8 |

same assay, conditions: responding patients with HLA type DR4 / all responding patients; PBMCs from TroVax treated patients

| Substance | HLA-type distribution among positive proliferative responses: DR4 |
| --- | --- |
| 43.2: class II 5T4 20 mer peptide (details in Table 12) (LNSADLDCDPILPPSLQTSY) [Peptide 43.2] | 0/11 |
| 44.2: class II 5T4 20 mer peptide (details in Table 12) (DPILPPSLQTSYVFLGIVLA) [Peptide 44.2] | 1/9 |
| 45.2: class II 5T4 20 mer peptide (details in Table 12) (MRNRVLLELNSADLDCDPIL) [Peptide 45.2] | 3/8 |

same assay, conditions: responding patients with HLA type DR7 / all responding patients; PBMCs from TroVax treated patients

| Substance | HLA-type distribution among positive proliferative responses: DR7 |
| --- | --- |
| 43.2: class II 5T4 20 mer peptide (details in Table 12) (LNSADLDCDPILPPSLQTSY) [Peptide 43.2] | 4/11 |
| 44.2: class II 5T4 20 mer peptide (details in Table 12) (DPILPPSLQTSYVFLGIVLA) [Peptide 44.2] | 0/9 |
| 45.2: class II 5T4 20 mer peptide (details in Table 12) (MRNRVLLELNSADLDCDPIL) [Peptide 45.2] | 2/8 |

same assay, conditions: responding patients with HLA type DR8 / all responding patients; PBMCs from TroVax treated patients

| Substance | HLA-type distribution among positive proliferative responses: DR8 |
| --- | --- |
| 43.2: class II 5T4 20 mer peptide (details in Table 12) (LNSADLDCDPILPPSLQTSY) [Peptide 43.2] | 1/11 |
| 44.2: class II 5T4 20 mer peptide (details in Table 12) (DPILPPSLQTSYVFLGIVLA) [Peptide 44.2] | 0/9 |
| 45.2: class II 5T4 20 mer peptide (details in Table 12) (MRNRVLLELNSADLDCDPIL) [Peptide 45.2] | 0/8 |

same assay, conditions: responding patients with HLA type DR9 / all responding patients; PBMCs from TroVax treated patients

| Substance | HLA-type distribution among positive proliferative responses: DR9 |
| --- | --- |
| 43.2: class II 5T4 20 mer peptide (details in Table 12) (LNSADLDCDPILPPSLQTSY) [Peptide 43.2] | 0/11 |
| 44.2: class II 5T4 20 mer peptide (details in Table 12) (DPILPPSLQTSYVFLGIVLA) [Peptide 44.2] | 1/9 |
| 45.2: class II 5T4 20 mer peptide (details in Table 12) (MRNRVLLELNSADLDCDPIL) [Peptide 45.2] | 0/8 |

same assay, conditions: responding patients with HLA type DR11 / all responding patients; PBMCs from TroVax treated patients

| Substance | HLA-type distribution among positive proliferative responses: DR11 |
| --- | --- |
| 43.2: class II 5T4 20 mer peptide (details in Table 12) (LNSADLDCDPILPPSLQTSY) [Peptide 43.2] | 1/11 |
| 44.2: class II 5T4 20 mer peptide (details in Table 12) (DPILPPSLQTSYVFLGIVLA) [Peptide 44.2] | 1/9 |
| 45.2: class II 5T4 20 mer peptide (details in Table 12) (MRNRVLLELNSADLDCDPIL) [Peptide 45.2] | 0/8 |

same assay, conditions: responding patients with HLA type DR13 / all responding patients; PBMCs from TroVax treated patients

| Substance | HLA-type distribution among positive proliferative responses: DR13 |
| --- | --- |
| 43.2: class II 5T4 20 mer peptide (details in Table 12) (LNSADLDCDPILPPSLQTSY) [Peptide 43.2] | 2/11 |
| 44.2: class II 5T4 20 mer peptide (details in Table 12) (DPILPPSLQTSYVFLGIVLA) [Peptide 44.2] | 1/9 |
| 45.2: class II 5T4 20 mer peptide (details in Table 12) (MRNRVLLELNSADLDCDPIL) [Peptide 45.2] | 1/8 |

same assay, conditions: responding patients with HLA type DR15 / all responding patients; PBMCs from TroVax treated patients

| Substance | HLA-type distribution among positive proliferative responses: DR15 |
| --- | --- |
| 43.2: class II 5T4 20 mer peptide (details in Table 12) (LNSADLDCDPILPPSLQTSY) [Peptide 43.2] | 6/11 |
| 44.2: class II 5T4 20 mer peptide (details in Table 12) (DPILPPSLQTSYVFLGIVLA) [Peptide 44.2] | 5/9 |
| 45.2: class II 5T4 20 mer peptide (details in Table 12) (MRNRVLLELNSADLDCDPIL) [Peptide 45.2] | 4/8 |

same assay, conditions: responding patients with HLA type DR17 / all responding patients; PBMCs from TroVax treated patients

| Substance | HLA-type distribution among positive proliferative responses: DR17 |
| --- | --- |
| 43.2: class II 5T4 20 mer peptide (details in Table 12) (LNSADLDCDPILPPSLQTSY) [Peptide 43.2] | 2/11 |
| 44.2: class II 5T4 20 mer peptide (details in Table 12) (DPILPPSLQTSYVFLGIVLA) [Peptide 44.2] | 3/9 |
| 45.2: class II 5T4 20 mer peptide (details in Table 12) (MRNRVLLELNSADLDCDPIL) [Peptide 45.2] | 1/8 |

same assay, conditions: responding patients with HLA type DR51 / all responding patients; PBMCs from TroVax treated patients

| Substance | HLA-type distribution among positive proliferative responses: DR51 |
| --- | --- |
| 43.2: class II 5T4 20 mer peptide (details in Table 12) (LNSADLDCDPILPPSLQTSY) [Peptide 43.2] | 6/11 |
| 44.2: class II 5T4 20 mer peptide (details in Table 12) (DPILPPSLQTSYVFLGIVLA) [Peptide 44.2] | 5/9 |
| 45.2: class II 5T4 20 mer peptide (details in Table 12) (MRNRVLLELNSADLDCDPIL) [Peptide 45.2] | 4/8 |

same assay, conditions: responding patients with HLA type DR52 / all responding patients; PBMCs from TroVax treated patients

| Substance | HLA-type distribution among positive proliferative responses: DR52 |
| --- | --- |
| 43.2: class II 5T4 20 mer peptide (details in Table 12) (LNSADLDCDPILPPSLQTSY) [Peptide 43.2] | 4/11 |
| 44.2: class II 5T4 20 mer peptide (details in Table 12) (DPILPPSLQTSYVFLGIVLA) [Peptide 44.2] | 5/9 |
| 45.2: class II 5T4 20 mer peptide (details in Table 12) (MRNRVLLELNSADLDCDPIL) [Peptide 45.2] | 2/8 |

same assay, conditions: responding patients with HLA type DR53 / all responding patients; PBMCs from TroVax treated patients

| Substance | HLA-type distribution among positive proliferative responses: DR53 |
| --- | --- |
| 43.2: class II 5T4 20 mer peptide (details in Table 12) (LNSADLDCDPILPPSLQTSY) [Peptide 43.2] | 3/11 |
| 44.2: class II 5T4 20 mer peptide (details in Table 12) (DPILPPSLQTSYVFLGIVLA) [Peptide 44.2] | 2/9 |
| 45.2: class II 5T4 20 mer peptide (details in Table 12) (MRNRVLLELNSADLDCDPIL) [Peptide 45.2] | 5/8 |
